Among the data in DBAASP are MIC values, retold here.

Some test systems named below: Candida krusei ATCC 6258; Vibrio cholerae CUN 09; Candida albicans; Escherichia coli; Pseudomonas aeruginosa; Staphylococcus aureus; Listeria monocytogenes.
Assay in all cases: ≥ marks a high value that may be exact or a test limit, other limits are often not marked, values filed in µg/mL are converted to µM
In test [1] the test system is Candida albicans ATCC 2048.
For test [2], the system named is Candida glabrata ATCC 90525.
Test [3] deals with Candida parapsilosis ATCC 20224.
The test system of test [4] is Candida tropicalis ATCC 20240.
Test [5] deals with Staphylococcus aureus ATCC 43300.
The subject of test [6] is Candida albicans NCTC 1467.
The test system of test [7] is Enterococcus faecalis NCTC 12697.
The test system of test [8] is Escherichia coli NCTC 10418.
In test [9] the test system is Pseudomonas aeruginosa ATCC 27853.
Test [10] relates to Staphylococcus aureus ATCC 12493.
Test [11] relates to Staphylococcus aureus NCTC 10788.
In test [12] the test system is Lactobacillus delbrueckii subsp. bulgaricus CIDCA 331.
Test [13] concerns Lactobacillus delbrueckii subsp. lactis CIDCA 133.
Test [14] concerns Acinetobacter baumannii ATCC BAA-1605.
The test system of test [15] is Escherichia coli ATCC 25922.
Test [16] deals with Escherichia coli ATCC 43827.
The subject of test [17] is Listeria monocytogenes EGD.
The subject of test [18] is Pseudomonas aeruginosa ATCC 9027.
Test [19] has as its system Staphylococcus aureus ATCC 25923.
For test [20], the system named is Staphylococcus aureus ATCC 33591.
In test [21] the test system is Candida albicans ATCC 90029.
Test [22] relates to Staphylococcus aureus ATCC 29213.
Test [23] relates to Listeria monocytogenes ATCC 19114.
Test [24] concerns Listeria monocytogenes ATCC 19115.
For test [25], the system named is Listeria monocytogenes ATCC 7644.
Test [26] has as its system Listeria monocytogenes NCTC 18890.

Values after ≈ are worked out from the molar mass of the structure shown. Where only a bound is given, the exact number is not on record here.

What is called MIC is the least concentration at which growth counts as inhibited. A lower MIC goes with inhibition by little substance. For the molecule `CC[C@H](C)[C@H](NC(=O)[C@H](CO)NC(=O)[C@H](CC(C)C)NC(=O)[C@@H](NC(=O)[C@H](CCCN=C(N)N)NC(=O)[C@@H](N)CCC(=O)O)[C@@H](C)CC)C(=O)N[C@@H](CC(C)C)C(=O)N[C@@H](CCCN=C(N)N)C(=O)N[C@@H](Cc1cnc[nH]1)C(=O)N[C@@H](CCC(N)=O)C(=O)N[C@@H](CC(N)=O)C(=O)N[C@@H](CC(C)C)C(=O)N[C@@H](CC(C)C)C(=O)N[C@@H](CCCCN)C(=O)N[C@@H](CCC(=O)O)C(=O)O` [ERILSILRHQNLLKE], the MIC in test [1] was at least 130 µM; in test [2], at least 110 µM; in the test with Candida krusei ATCC 6258, at least 130 µM; in [3], at least 130 µM; in [4] it was at least 73 µM.
Take `CC(C)C[C@H](NC(=O)[C@H](CCCCN)NC(=O)CNC(=O)[C@H](CCCCN)NC(=O)[C@H](Cc1ccccc1)NC(=O)[C@H](CCCCN)NC(=O)[C@H](Cc1c[nH]c2ccccc12)NC(=O)[C@H](CCCN=C(N)N)NC(=O)[C@H](Cc1ccccc1)NC(=O)[C@H](CCCN=C(N)N)NC(=O)[C@H](CCCN=C(N)N)NC(=O)[C@H](Cc1ccc(O)cc1)NC(=O)[C@H](CCCCN)NC(=O)[C@H](CCCCN)NC(=O)[C@H](CS)NC(=O)CN)C(=O)N[C@@H](Cc1c[nH]c2ccccc12)C(=O)N[C@@H](CC(C)C)C(=O)N[C@@H](Cc1c[nH]c2ccccc12)C(=O)NCC(N)=O` [GCKKYRRFRWKFKGKLWLWG]: the values for the MIC (in test [5]; with Vibrio cholerae CUN 09) were 6.05 µM (≈ 16 µg/mL) and 12.1 µM (≈ 32 µg/mL), respectively.
In the case of `CC[C@H](C)[C@H](NC(=O)CN)C(=O)N[C@@H](CCSC)C(=O)N[C@@H](CC(=O)O)C(=O)N[C@H](C(=O)N[C@H](C(=O)N[C@@H](CCCCN)C(=O)N[C@@H](CC(N)=O)C(=O)N[C@@H](C)C(=O)N[C@@H](C)C(=O)N[C@@H](CCCCN)C(=O)N[C@@H](CC(N)=O)C(=O)N[C@@H](CC(C)C)C(=O)N[C@@H](C)C(=O)NCC(=O)N[C@@H](CCC(N)=O)C(=O)N[C@@H](CC(C)C)C(=O)N[C@@H](CC(C)C)C(=O)N[C@@H](CC(=O)O)C(=O)N[C@@H](CCCCN)C(=O)N[C@@H](CC(C)C)C(=O)N[C@@H](CCCCN)C(=O)N[C@H]1CSSC[C@@H](C(=O)O)NC(=O)[C@H](C)NC(=O)[C@H]([C@@H](C)O)NC(=O)[C@H]([C@@H](C)CC)NC(=O)[C@H](CCCCN)NC1=O)C(C)C)[C@@H](C)O` [GIMDTVKNAAKNLAGQLLDKLKCKITAC], the MIC was at least 256 µM in test [6]; at least 128 µM in test [7]; at least 32 µM in [8]; over 512 µM in [9]; at least 256 µM in [10]; at least 32 µM in test [11].
Consider `CC[C@H](C)[C@H](NC(=O)[C@H](CC(=O)O)NC(=O)[C@H](Cc1ccccc1)NC(=O)[C@H](CC(C)C)NC(=O)CN)C(=O)N[C@@H](CCCCN)C(=O)N[C@@H](CCCCN)C(=O)N[C@H](C(=O)N[C@@H](C)C(=O)N[C@@H](CO)C(=O)N[C@H](C(=O)N[C@H](C(=O)NCC(=O)NCC(=O)N[C@@H](CC(C)C)C(N)=O)[C@@H](C)CC)C(C)C)C(C)C` [GLFDIKKVASVIGGL], for which the minimum inhibitory concentration (MIC) is 25 µM (≈ 37.9 µg/mL) in [12] and at least 50 µM in test [13].
As to `CC[C@H](C)[C@H](NC(=O)[C@H](Cc1ccccc1)NC(=O)[C@H](CCCCN)NC(=O)[C@H](CC(N)=O)NC(=O)[C@H](CC(C)C)NC(=O)[C@H](CCC(N)=O)NC(=O)CN)C(=O)N[C@@H](CCCCN)C(=O)N[C@@H](CCCCN)C(=O)N[C@@H](C)C(=O)N[C@@H](CCC(N)=O)C(=O)N[C@@H](CCCN=C(N)N)C(=O)N[C@@H](CCCCN)C(=O)N[C@@H](Cc1ccccc1)C(=O)N[C@@H](Cc1cnc[nH]1)C(=O)N[C@@H](CCC(=O)O)C(=O)N[C@@H](CCCCN)C(=O)N[C@@H](Cc1ccccc1)C(=O)N[C@@H](C)C(=O)N[C@@H](CCCCN)C(N)=O` [GQLNKFIKKAQRKFHEKFAK], the MIC in test [14] is at least 105 µM; in test [15] it was 128 µM (≈ 313 µg/mL); in test [16], at least 209 µM; in [17], at least 128 µM; in test [9], 128 µM (≈ 313 µg/mL); in [18], 209 µM (≈ 512 µg/mL). Further, the MIC was 128 µM (≈ 313 µg/mL) in [19] and at least 209 µM in test [20].
As to `CC(C)C[C@H](NC(=O)[C@H](CO)NC(=O)[C@H](Cc1cnc[nH]1)NC(=O)[C@H](CO)NC(=O)[C@H](CC(C)C)NC(=O)[C@H](CC(C)C)NC(=O)[C@@H](N)CCCCN)C(=O)N[C@@H](CC(C)C)C(=O)N[C@H](C(=O)N[C@H](C(=O)N[C@@H](CC(C)C)C(=O)N[C@@H](C)C(=O)O)[C@@H](C)O)C(C)C` [KLLSHSLLVTLA], the MIC was at least 154 µM in test [21]; over 154 µM against Candida albicans; 4.83 µM (≈ 6.25 µg/mL) in test [15]; 9.66 µM (≈ 12.5 µg/mL) against Escherichia coli; 4.83 µM (≈ 6.25 µg/mL) with Pseudomonas aeruginosa; 4.83 µM (≈ 6.25 µg/mL) in test [22]. In the test on Staphylococcus aureus, this molecule gave an MIC of 4.83 µM (≈ 6.25 µg/mL).
For `CSCC[C@H](N)C(=O)N[C@@H](CCCN=C(N)N)C(=O)NCC(=O)N[C@@H](CO)C(=O)N[C@@H](Cc1cnc[nH]1)C(=O)N[C@@H](Cc1cnc[nH]1)C(=O)N[C@@H](Cc1cnc[nH]1)C(=O)N[C@@H](Cc1cnc[nH]1)C(=O)N[C@@H](Cc1cnc[nH]1)C(=O)N[C@@H](Cc1cnc[nH]1)C(=O)NCC(=O)N[C@@H](CO)C(=O)N[C@@H](CO)C(=O)NCC(=O)N[C@@H](CCC(=O)O)C(=O)N[C@@H](CC(N)=O)C(=O)N[C@@H](CC(C)C)C(=O)N[C@@H](Cc1ccc(O)cc1)C(=O)N[C@@H](Cc1ccccc1)C(=O)N[C@@H](CCC(N)=O)C(=O)N[C@@H](CO)C(=O)N[C@@H](CC(C)C)C(=O)O` [MRGSHHHHHHGSSGENLYFQSL], the MIC (in test [23]; in [24]; in test [25]; in test [26]; in the test on Listeria monocytogenes) was at least 1960 µM in each case.
